Experimental data published in patent US12673106B2, “Modulators of nuclear receptor subfamily 4 group A member 1 (NR4A1) and uses thereof” (University of Florida Research Foundation, Incorporated, priority 2020, dated 2026).

Key:
[1] = molecular target: T1, NR4A1 (Homo sapiens, UniProt P22736); assay: E3 ligase-mediated NR4A1 degradation in transfected HEK293T cells (immunoblotting); type: cell-based; conditions: HEK293T transfected with NR4A1, with or without CRBN or VHL; 3 μM, 6 hrs
Procedure: FIG. 4A. Efficiency of NR4A1-Ps in protein degradation using 3 examples of NR4A1-Ps based on CRBN (NR-C91, 92, 93) and 4 based on VHL (NR-V03, 04, 07, 50), with NR-V04 showing the best efficacy in NR4A1 degradation. FIG. 4B. NR4A1 degradation is mediated by targeted E3 ligases. HEK293T cells were transfected with NR4A1, with or without overexpression of CRBN or VHL. 36 hrs after transfection, cells were treated with 3 μM of NR-C91 or NR-V04 for 6 hrs for immunoblotting.
(§1) Developing NR4A1-Ps. Due to the diverse function of NR4A1 in different cancer types, both agonistic and antagonistic ligands of NR4A1 are of interest in development (25). […] 4 cytosporone-B-based and 10 celastrol-based NR4A1-Ps using polyethylene glycol (PEG) linkers of various length have already been synthesized (FIG. 3 showing several examples).

[2] = molecular target: T1, NR4A1; assay: Degradation of endogenous NR4A1 in T47D breast cancer cells; type: cell-based; parameters: degrade endogenous NR4A1 in T47D breast cancer cells; endogenous in cells; host or cells: T47D breast cancer cells; conditions: 1 μM
[3] = tested on: B16F10 melanoma; assay: B16F10 melanoma model in NSG mice; type: in vivo, mouse; conditions: 1.8 mg/kg twice weekly for 3 weeks
Excerpt: (§2) FIG. 10A-10C. […] Tumor growth were monitored via palpation. N=7 mice/group. FIG. 10A and FIG. 10B are the same experiment, but FIG. 10B includes only control vehicle and NR-V04 treated groups in FIG. 10B.

[4] = tested on: OT-1 CD8 T cells; assay: OVA peptide-induced exhaustion of OT-1 CD8 T cells, flow cytometry; type: cell-based, mouse; conditions: 1 μM
Procedure: Splenic CD8+ T cells were purified from OT-1 transgenic mice, treated with 10 ng/ml of OVA peptides for 5 days, following with NR-V04 treatment at 250 nM, 500 nM or 1 μM. CD39+, granzyme B+(P<0.0001), Lag3+ or PD-1+CD8 T cells (P<0.05) were quantitated using flow cytometry.
To induce antigen specific exhaustion of CD8^+ T cells, we purified CD8^+ T cells from OT-1 mice that expresses T cell receptor targeting OVA antigen. We treated these OT-1 CD8 T cells with OVA peptide for 5 days to induce their exhaustion, following with NR-V04 treatment with various concentrations.

[5] = Body weight and T cell development in normal mice; type: in vivo, mouse; conditions: up to 3 weeks
Excerpt: Thymus (FIG. 12A) and spleen (FIG. 12B) were collected for T cell quantitation by flow cytometry.

[6] = tested on: CD8+ T cells; assay: CD8 T cell activation in B16F10 tumor bearing mice, flow cytometry; type: in vivo, mouse; conditions: 1.8 mg/kg, one week (two doses)
Procedure: B16F10 tumor bearing mice were treated with control vehicle or 1.8 mg/kg of NR-V04 for one week (two doses). CD8 T cells were analyzed for activation from tumors, spleen and blood. FIG. 15A. CD44+CD62L+(central memory, CM) and FIG. 15B. CD44+CD62L− (effector memory, EM) of CD8+ T cells were quantitated using flow cytometry.
We also determined the impact of NR-V04 on exhaustion and activation of CD8^+ T cells.

[7] = tested on: RENCA cells; assay: RENCA renal cancer model in Balb/C mice; type: in vivo, mouse
Procedure: RENCA cells (10,000 per injection) were injected into s.c. of 8-week Balb/C mice, following with vehicle or NR-V04 treatment i.p. at 8 mg/kg weekly, starting at day 15 after tumor cell injection. Tumor volume was recorded.
(§3) FIG. 13A-FIG. 13C. Influence of NR-V04 treatment on TI-Tregs from (FIG. 13A) B16F10 melanoma, 1.8 mg/kg twice weekly for 3 weeks; (FIG. 13B) RENCA renal cancer model, 20 mg/kg once a week for 3 weeks; (FIG. 13C-13D) Py8119 breast cancer model, 8 mg/kg once a week for 3 weeks; with FIG. 13C showing the ratios between Treg/Tconv and FIG. 13D showing Treg/CD8+ T cell ratios.
Some of the above tumor models will be included, initially using immune responsive tumors including RENCA and MC38 model. […] Tumor volumes will be determined twice weekly by a caliper and calculated as length×width^2×0.5. Animal will be terminated once the largest tumors reach 2 cm in diameter per IACUC protocol (size is justified to determine lung metastasis). • The parameters include: • Primary tumors—Tumors will be cut into pieces and used for: a) immunohistochemical (IHC) staining (embedding in OCT compound and freezing). […]

[8] = tested on: T47D cells; assay: MTS viability assay, T47D cells; type: cell-based; conditions: relative to celastrol or NR-V04-NT
Excerpt: (§4) NR4A1-Ps selectively kill breast cancer cells. Since NR-V04 is very efficient in NR4A1 degradation, a negative control, NR-V04-NT, was synthesized.

[9] = tested on: B16F10 melanoma; assay: B16F10 melanoma model in C57BL/6J mice; type: in vivo, mouse
Procedure: as §2, §3

[10] = tested on: MCF7-Tam cells; assay: MTS viability assay, MCF7-Tam cells; type: cell-based; conditions: relative to celastrol or NR-V04-NT
Excerpt: as §4

[11] = tested on: human T cells from PBMC; assay: T cells from human PBMC of cancer patients, CD3/CD28 co-stimulated, flow cytometry; type: cell-based; conditions: 500 nM or 1 uM, two days
Procedure: T cells were purified from human PBMC from cancer patients and co-stimulated with anti-CD3/CD28 dynabeads for 3 days, following with DMSO, 500 nM or 1 uM of NR-V04 treatment for two days. FIG. 14A-14B, different sub-population of T cell numbers were quantitated via flow cytometry (FIG. 14A), with Treg panel separated (FIG. 14B).
In agreement with the in vivo models, we also activated all human T cells from PBMC of cancer patients, following with the treatment of various concentrations of NR-V04.

[12] = Pharmacokinetics in mouse, plasma by LC/MS/MS; type: in vivo
Procedure: Plasma concentrations of NR-V04 were determined by LC/MS/MS (Instrument: AB Sciex 6500 (#15)) using service from BioDuro Inc, at different time points after mice receiving iv injection of 2 mg/kg or ip injection of 20 mg/kg. PK values for iv (2 mg/kg, FIG. 17A) or ip (20 mg/kg, FIG. 17B) are shown and summarized (FIG. 17C).
PK was determined for NR-V04 for iv. injection of 2 mg/kg or ip injection of 20 mg/kg (FIG. 17).

[13] = tested on: MCF10A; assay: MTS viability assay, MCF10A normal breast epithelial cells; type: cell-based, human; conditions: relative to celastrol
Excerpt: as §4

[14] = molecular target: T2, NR4A1 (Mus musculus, UniProt P12813); assay: NR4A1 degradation in MC38 tumors of treated mice (tumor lysate immunoblotting); type: in vivo; conditions: MC38-tumor bearing mice, 1.8 mg/kg twice weekly for 3 weeks
T2 construct: from tissue; host or cells: MC38 tumors from treated tumor-bearing mice (tumor lysates)
Excerpt: Tumor lysates were used for immunoblotting.
as §1

[15] = tested on: Py8119 cells; assay: Py8119 breast cancer model in C57/BL6 mice; type: in vivo, mouse
Procedure: FIG. 7A-FIG. 7D. Py8119 cells were injected into #4 mammary fatpad of 8-week female C57/BL6 mice, following with vehicle or NR-V04 treatment i.p. at 8 mg/kg weekly, starting at day 15 after tumor cell injection. Body weight (FIG. 7A), tumor growth (data not shown), and immune cell profiling by flow cytometry from spleen, tumor, and blood were shown (FIG. 7B-7D). CD45+CD3+CD8+ T cells (FIG. 7B), CD45+CD3+CD4+T (FIG. 7C), and ratios of CD4+Foxp3+Tregs to total T cells (T), to total CD4 T cells (CD4), to total CD4conv (non Treg CD4 T cells), or to CD8 T cells (FIG. 7D) were shown. * P<0.05; ** P<0.01.
as §3
Syngeneic models for antitumor activities. Syngeneic tumor models include breast cancer models: 1) E0771 as luminal breast cancer (C57BL/6 background) (36-38), 2) Py8119 (C57BL/6) (37, 39, 40) and 3) 4T1 (Balb/C) (41, 42) as triple negative breast cancer, and 4) MT2 as HER2-positive breast cancer (FVB/N) (43, 44), all of which develop metastasis upon orthotopic tumor injections; 5) MC-38 colon cancer model; 6) Renca renal carcinoma model; 7) B16 melanoma models. MC-38 is known to be responsive to ICIs and Renca is known to respond of Treg suppression in their tumor growth. B16 is only partially responsive to ICI treatment when anti-CTLA-4 and anti-PD-1 are combined. Careful titration of the minimal cell numbers provides consistent tumor growth and/or metastasis. For testing the efficacy of NR-V04 or other leads, tumor-bearing mice will be treated with either non-targeting NR-V04-NT or NR-V04, or other leads, starting 14 days after tumor cell injection when 3-5 mm in diameter tumor growth is typically seen in all models. The dose and frequency will be used based on the data from SA1.2. Based on work on BCL-XL PROTAC (22), weekly injection of the leads should be sufficient to maintain effective doses in various tissues.

[16] = Toxicity and body weight in tumor-bearing mice (FIG. 11); type: in vivo; conditions: 0.75 mg/kg celastrol twice weekly for 3 weeks
Procedure: Body weight was recorded weekly.

[17] = molecular target: T1, NR4A1; parameters: degrade endogenous NR4A1 in T47D breast cancer cells; endogenous in cells; host or cells: T47D breast cancer cells; conditions: NR4A1 ligand used as warhead; cited from earlier work

T1 sequence (P22736 whole entry, species assumed): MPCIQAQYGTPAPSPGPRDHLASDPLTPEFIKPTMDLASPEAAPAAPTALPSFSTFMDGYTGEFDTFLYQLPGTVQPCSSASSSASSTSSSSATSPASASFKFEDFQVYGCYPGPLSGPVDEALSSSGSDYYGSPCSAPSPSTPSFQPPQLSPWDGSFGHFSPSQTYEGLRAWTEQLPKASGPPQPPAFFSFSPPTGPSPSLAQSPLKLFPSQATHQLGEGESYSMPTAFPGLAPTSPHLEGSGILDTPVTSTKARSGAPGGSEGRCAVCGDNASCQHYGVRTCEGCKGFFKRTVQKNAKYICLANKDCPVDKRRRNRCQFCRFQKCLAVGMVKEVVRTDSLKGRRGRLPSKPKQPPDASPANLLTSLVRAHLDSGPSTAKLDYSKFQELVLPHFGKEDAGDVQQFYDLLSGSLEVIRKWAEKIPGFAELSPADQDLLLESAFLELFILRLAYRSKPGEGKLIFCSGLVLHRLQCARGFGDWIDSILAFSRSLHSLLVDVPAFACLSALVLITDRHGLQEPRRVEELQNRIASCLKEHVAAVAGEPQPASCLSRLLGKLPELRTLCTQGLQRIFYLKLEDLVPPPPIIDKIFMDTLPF
T2 sequence (P12813 whole entry): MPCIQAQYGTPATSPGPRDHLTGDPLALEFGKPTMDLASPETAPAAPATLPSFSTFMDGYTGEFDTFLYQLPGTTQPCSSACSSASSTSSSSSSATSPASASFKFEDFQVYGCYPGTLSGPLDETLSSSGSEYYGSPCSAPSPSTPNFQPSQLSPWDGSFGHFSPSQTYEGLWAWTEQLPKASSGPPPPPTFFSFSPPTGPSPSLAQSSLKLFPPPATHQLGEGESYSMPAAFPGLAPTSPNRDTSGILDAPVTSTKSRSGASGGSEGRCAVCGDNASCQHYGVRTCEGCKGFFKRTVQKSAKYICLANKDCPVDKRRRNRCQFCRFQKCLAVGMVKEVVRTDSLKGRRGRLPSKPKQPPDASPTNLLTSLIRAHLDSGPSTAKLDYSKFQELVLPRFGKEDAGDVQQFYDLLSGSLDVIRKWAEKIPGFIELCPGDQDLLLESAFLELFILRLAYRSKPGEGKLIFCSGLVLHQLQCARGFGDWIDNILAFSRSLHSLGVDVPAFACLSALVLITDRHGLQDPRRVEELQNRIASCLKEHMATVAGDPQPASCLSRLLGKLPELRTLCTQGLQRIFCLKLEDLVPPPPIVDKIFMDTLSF

In the case of `CC1=C(O)C(=O)C=C2C1=CC=C1[C@@]2(C)CC[C@@]2(C)[C@@H]3C[C@](C)(C(=O)NCCOCCNc4cccc5c4C(=O)N(C4CCC(=O)NC4=O)C5=O)CC[C@]3(C)CC[C@]12C` (stereo partly drawn) [NR-C91], the “NR4A1 degradation with overexpression of the corresponding E3 ligase” value [1] is reported as “overexpression of their corresponding E3 ligases facilitated NR4A1-P-mediated degradation of NR4A1” and the NR4A1 degradation [2] is reported as “led to the degradation of NR4A1, but not as efficiently as NR-V04”.
With `CC1=C(O)C(=O)C=C2C1=CC=C1[C@@]2(C)CC[C@@]2(C)[C@@H]3C[C@](C)(C(=O)NCCOCCOCCOCCOCC(=O)N[C@H](C(=O)N4C[C@H](O)C[C@H]4C(=O)N[C@@H](C)c4ccc(-c5scnc5C)cc4)C(C)(C)C)CC[C@]3(C)CC[C@]12C` [NR-V04] the tumor suppressing effect [3] was “this effect is diminished”, the “granzyme B+ active CD8 T cells” value [4] was “increase” and the “percent of Lag3+ exhausted CD8 T cells” value [4] was “significantly reduced”. The “percent of PD-1+ exhausted CD8 T cells” value [4] was “significantly reduced”, the body weight [5] was “did not influence the body weight” and the “development of T cells in thymus and spleen” value [5] was “did not change the normal development of T cells”. The “central memory CD8+ T cells (CD44+CD62L+)” value [6] was “no significant change”, the “effector memory population of CD8+ T cells (CD44+CD62L−)” value [6] was “significant increase” and the tumor volume ([7]; 8 mg/kg i.p. weekly from day 15) was “significant reduction”. The TI-Tregs ([7]; 20 mg/kg once a week for 3 weeks) was “decreased TI-Tregs”, the “NR4A1 degradation with overexpression of the corresponding E3 ligase” value [1] was “overexpression of their corresponding E3 ligases facilitated NR4A1-P-mediated degradation of NR4A1” and the “cell killing (% viability)” value [8] was “more robust killing relative to celastrol or NR-V04-NT”. The TI-Tregs ([9]; B16F10, 1.8 mg/kg twice weekly for 3 weeks) was “decreased TI-Tregs”, the tumor growth ([9]; B16F10 in C57BL/6J male mice, 1.8 mg/kg NR-V04 or 0.75 mg/kg celastrol twice weekly for 3 weeks) was “significantly reduces tumor growth” and the “cell killing (% viability)” value [10] was “more robust killing relative to celastrol or NR-V04-NT”. The “T cell populations other than Tregs” value [11] was “no impact on various T cell populations”, the Tregs [11] was “selectively elimination of Tregs” and the average half-life ([12]; ip injection 20 mg/kg) was 8.58 h. The average half-life ([12]; iv injection 2 mg/kg) was 5.36 h, the NR4A1 degradation [2] was “best efficiency in inducing NR4A1 degradation” and the “toxicity to normal cells (% viability)” value [13] was “less toxic”. The “degradation of NR4A1 within tumors” value [14] was “efficient degradation of target protein NR4A1”, the “overall CD4+ and CD8+ T cells” value ([15]; Py8119, 8 mg/kg i.p. weekly) was “without influencing overall CD4+ and CD8+ T cells” and the “tumor-infiltrating Tregs versus effector T cell ratio” value ([15]; Py8119, 8 mg/kg i.p. weekly) was “On-target decrease”. For the same compound, the tumor growth ([15]; Py8119, 8 mg/kg i.p. weekly from day 15) was “Tumor growth difference was not observed” and the body weight ([15]; Py8119, 8 mg/kg i.p. weekly, day 25 or 30) was “no difference in body weight”.
In the case of `CC1=C(O)C(=O)C=C2C1=CC=C1[C@@]2(C)CC[C@@]2(C)[C@@H]3C[C@](C)(C(=O)O)CC[C@]3(C)CC[C@]12C` [celastrol], the body weight [16] is reported as “significant body weight change”.
In the case of `CCCCCCCC(=O)c1c(O)cc(O)cc1CC(=O)OCC` [cytosporone-B], the Kd [17] is listed as 1.68 µM.
